According to PubChem BioAssay AID248 (DTP/NCI, 2004):
Inconclusive results and toxic doses are left out. Rule as the data show it: active = T/C of 150% or more; inactive = T/C below 125%.

Tested on: L1210 leukemia ip in BDF1 mice, survival T/C
Test: NCI In Vivo Anticancer Drug Screen. Data for tumor model L1210 Leukemia (intraperitoneal) in B6D2F1 (BDF1) mice
Conditions: endpoint: mean survival time, higher = longer survival
In short: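 Ratio derived from survival: compound-dosed mice over vehicle-dosed mice, all bearing a transplantable tumor.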

[1] = dose: 100.0 mg/kg/injection, schedule: Q01DX009 (ip), vehicle: Klucel (hydroxypropylcellulose) (HPC)
[2] = dose: 200.0 mg/kg/injection, schedule: Q01DX009 (ip), vehicle: Klucel (hydroxypropylcellulose) (HPC)
[3] = dose: 400.0 mg/kg/injection, schedule: Q01DX009 (ip), vehicle: Klucel (hydroxypropylcellulose) (HPC)
[4] = dose: 100.0 mg/kg/injection, schedule: Q04DX003 (ip), vehicle: Klucel (hydroxypropylcellulose) (HPC)
[5] = dose: 200.0 mg/kg/injection, schedule: Q04DX003 (ip), vehicle: Klucel (hydroxypropylcellulose) (HPC)
[6] = dose: 400.0 mg/kg/injection, schedule: Q04DX003 (ip), vehicle: Klucel (hydroxypropylcellulose) (HPC)
[7] = dose: 100.0 mg/kg/injection, schedule: Q04DX002 (ip), vehicle: saline with Tween-80
[8] = dose: 200.0 mg/kg/injection, schedule: Q04DX002 (ip), vehicle: saline with Tween-80
[9] = dose: 400.0 mg/kg/injection, schedule: Q04DX002 (ip), vehicle: saline with Tween-80
[10] = dose: 100.0 mg/kg/injection, schedule: Q01DX001 (ip), vehicle: saline
[11] = dose: 200.0 mg/kg/injection, schedule: Q01DX001 (ip), vehicle: saline
[12] = dose: 400.0 mg/kg/injection, schedule: Q01DX001 (ip), vehicle: saline
[13] = dose: 50.0 mg/kg/injection, schedule: Q01DX009 (ip), vehicle: saline with Tween-80
[14] = dose: 100.0 mg/kg/injection, schedule: Q01DX001 (ip), vehicle: carboxymethylcellulose (CMC)
[15] = dose: 200.0 mg/kg/injection, schedule: Q01DX001 (ip), vehicle: carboxymethylcellulose (CMC)
[16] = dose: 400.0 mg/kg/injection, schedule: Q01DX001 (ip), vehicle: carboxymethylcellulose (CMC)

Measured: T/C

C/C(=N/N)c1ccccc1O
inactive: dose: 25.6 mg/kg/injection, schedule: Q04DX002 (ip), vehicle: saline 88 % of control | dose: 160.0 mg/kg/injection, schedule: Q04DX002 (ip), vehicle: saline 92 % of control

OC1CCC2NCCCC2C1 (stereo not drawn)
inactive: dose: 75.0 mg/kg/injection, schedule: Q01DX001 (ip), vehicle: carboxymethylcellulose (CMC) 101 % of control | dose: 150.0 mg/kg/injection, schedule: Q01DX001 (ip), vehicle: carboxymethylcellulose (CMC) 103 % of control

COc1ccc(C(C(N)=O)N2CCCC2)cc1 (stereo not drawn)
inactive: dose: 100.0 mg/kg/injection, schedule: Q04DX003 (ip), vehicle: saline with Tween-80 102 % of control | dose: 200.0 mg/kg/injection, schedule: Q04DX003 (ip), vehicle: saline with Tween-80 96 % of control | dose: 400.0 mg/kg/injection, schedule: Q04DX003 (ip), vehicle: saline with Tween-80 96 % of control

CN(Cc1ccccc1Cl)C(=S)NC1CCCCC1
inactive: [1] 92 % of control | [2] 93 % of control | [3] 93 % of control

CCO/C(=C\[P+](c1ccccc1)(c1ccccc1)c1ccccc1)c1ccccc1
inactive: dose: 5.0 mg/kg/injection, schedule: Q01DX001 (ip), vehicle: saline 90 % of control | dose: 10.0 mg/kg/injection, schedule: Q01DX001 (ip), vehicle: saline 93 % of control | dose: 20.0 mg/kg/injection, schedule: Q01DX001 (ip), vehicle: saline 95 % of control | dose: 40.0 mg/kg/injection, schedule: Q01DX001 (ip), vehicle: saline 95 % of control

O=C1CCCc2c1ccc1ccccc21
inactive: [1] 97 % of control | [4] 101 % of control | [5] 103 % of control | [3] 100 % of control | [6] 100 % of control

c1cc[c]([Ge]([CH2][CH2][Sn]([c]2ccccc2)([c]2ccccc2)[c]2ccccc2)([CH2][CH2][Sn]([c]2ccccc2)([c]2ccccc2)[c]2ccccc2)[c]2ccccc2)cc1
inactive: [7] 98 % of control | [8] 102 % of control | [9] 94 % of control

CC(=O)N/N=C(/C)c1cccs1
inactive: [10] 103 % of control | [11] 109 % of control | [12] 100 % of control

Nc1nnnc2c1ncn2C1CCCC1
inactive: dose: 75.0 mg/kg/injection, schedule: Q01DX001 (ip), vehicle: other 97 % of control

CC(C)C(=O)OCC1OC(n2cnc3c(=S)nc[nH]c32)C(OC(=O)C(C)C)C1OC(=O)C(C)C (stereo not drawn)
inactive: dose: 2.5 mg/kg/injection, schedule: Q01DX Z (oral), vehicle: carboxymethylcellulose (CMC) 101 % of control | dose: 5.0 mg/kg/injection, schedule: Q01DX Z (oral), vehicle: carboxymethylcellulose (CMC) 95 % of control | dose: 10.0 mg/kg/injection, schedule: Q01DX Z (oral), vehicle: carboxymethylcellulose (CMC) 97 % of control | dose: 20.0 mg/kg/injection, schedule: Q01DX Z (oral), vehicle: carboxymethylcellulose (CMC) 100 % of control

Oc1ccccc1C=NCc1ccccc1
inactive: [4] 100 % of control | [5] 92 % of control | [6] 96 % of control

FC(F)(F)c1nc[nH]c1C(F)(F)F
inactive: dose: 6.25 mg/kg/injection, schedule: Q01DX009 (ip), vehicle: water 103 % of control | dose: 12.5 mg/kg/injection, schedule: Q01DX009 (ip), vehicle: water 97 % of control | dose: 25.0 mg/kg/injection, schedule: Q01DX009 (ip), vehicle: water 97 % of control

Cn1cnc(N)c1S(=O)(=O)Nc1cccc2ccccc12
inactive: dose: 100.0 mg/kg/injection, schedule: Q04DX003 (ip), vehicle: other 100 % of control | dose: 200.0 mg/kg/injection, schedule: Q04DX003 (ip), vehicle: other 102 % of control | dose: 400.0 mg/kg/injection, schedule: Q04DX003 (ip), vehicle: other 101 % of control

COc1cc2c(cc1O)C(=O)CCC(C(=O)O)=C2
inactive: [13] 93 % of control | dose: 100.0 mg/kg/injection, schedule: Q01DX009 (ip), vehicle: saline with Tween-80 107 % of control | dose: 200.0 mg/kg/injection, schedule: Q01DX009 (ip), vehicle: saline with Tween-80 96 % of control

Cc1c(Cl)ccc2c(C(=O)O)cc(-c3ccc(Cl)cc3)nc12
inactive: [14] 100 % of control | [15] 94 % of control | [16] 92 % of control

O=C1c2ccccc2C(=O)N1CCCCCN1C(=O)c2ccccc2C1=O
inactive: dose: 100.0 mg/kg/injection, schedule: Q01DX001 (ip), vehicle: saline with Tween-80 102 % of control | [7] 104 % of control | dose: 200.0 mg/kg/injection, schedule: Q01DX001 (ip), vehicle: saline with Tween-80 96 % of control | [8] 96 % of control | dose: 400.0 mg/kg/injection, schedule: Q01DX001 (ip), vehicle: saline with Tween-80 98 % of control | [9] 101 % of control

CN=C(NC)c1ccc(NC(=O)c2cccc(C(=O)Nc3ccc(C(=NC)NC)cc3)c2)cc1
inactive: dose: 15.0 mg/kg/injection, schedule: Q01DX Z (ip), vehicle: saline 110 % of control | dose: 30.0 mg/kg/injection, schedule: Q01DX Z (ip), vehicle: saline 119 % of control | dose: 60.0 mg/kg/injection, schedule: Q01DX Z (ip), vehicle: saline 86 % of control

CCOP(=O)(OCC)c1ccccc1Br
inactive: dose: 100.0 mg/kg/injection, schedule: Q01DX001 (ip), vehicle: acetone 89 % of control | dose: 200.0 mg/kg/injection, schedule: Q01DX001 (ip), vehicle: acetone 87 % of control | dose: 400.0 mg/kg/injection, schedule: Q01DX001 (ip), vehicle: acetone 89 % of control

CCS(=O)(=O)N1CCC(C)CC1
inactive: [7] 96 % of control | [8] 101 % of control | [9] 103 % of control

COc1cc2c(cc1OC)/C(=C\C#N)NCC2
inactive: [10] 98 % of control | [11] 98 % of control | [12] 100 % of control

O=C(O)CCCC[Se][Se]CCCCC(=O)O
inactive: dose: 25.0 mg/kg/injection, schedule: Q01DX001 (ip), vehicle: Klucel (hydroxypropylcellulose) (HPC) 102 % of control | dose: 50.0 mg/kg/injection, schedule: Q01DX001 (ip), vehicle: Klucel (hydroxypropylcellulose) (HPC) 96 % of control | dose: 100.0 mg/kg/injection, schedule: Q01DX001 (ip), vehicle: Klucel (hydroxypropylcellulose) (HPC) 99 % of control

CCCCCCCC/C=C/CCCCCCCC(=O)NCC[N+]1(C)CCCCC1
inactive: dose: 75.0 mg/kg/injection, schedule: Q01DX001 (ip), vehicle: saline 95 % of control

COc1cccc(NC(=O)NCCCl)c1
inactive: dose: 12.5 mg/kg/injection, schedule: Q01DX009 (ip), vehicle: saline with Tween-80 96 % of control | dose: 25.0 mg/kg/injection, schedule: Q01DX009 (ip), vehicle: saline with Tween-80 86 % of control | [13] 90 % of control

Cc1ccc(C(c2ccc(C)c(C)c2)C(c2ccc(C)c(C)c2)C(O)C(O)C(O)CO)cc1C (stereo not drawn)
inactive: dose: 50.0 mg/kg/injection, schedule: Q01DX001 (ip), vehicle: saline 93 % of control | [10] 106 % of control | [11] 98 % of control | [12] 98 % of control

CNC(=O)N(c1ccccc1)C1CCCCC1
inactive: dose: 50.0 mg/kg/injection, schedule: Q01DX009 (ip), vehicle: saline 112 % of control | dose: 100.0 mg/kg/injection, schedule: Q01DX009 (ip), vehicle: saline 103 % of control | dose: 100.0 mg/kg/injection, schedule: Q04DX003 (ip), vehicle: saline 104 % of control | dose: 200.0 mg/kg/injection, schedule: Q01DX009 (ip), vehicle: saline 103 % of control | dose: 200.0 mg/kg/injection, schedule: Q04DX003 (ip), vehicle: saline 97 % of control

O=[N+]([O-])c1ccccc1S(=O)(=O)N1CCN(S(=O)(=O)c2ccccc2[N+](=O)[O-])C1
inactive: [1] 90 % of control | [4] 96 % of control | [2] 93 % of control | [5] 96 % of control | [3] 93 % of control | [6] 100 % of control

CCN(CC)CCOC(=O)c1[nH]cnc1N
inactive: [10] 96 % of control | [11] 104 % of control | [12] 96 % of control

COc1cc(O)c2c(c1)Cc1cc(C)cc(O)c1C2=O
inactive: dose: 12.5 mg/kg/injection, schedule: Q04DX002 (ip), vehicle: Klucel (hydroxypropylcellulose) (HPC) 93 % of control | dose: 25.0 mg/kg/injection, schedule: Q04DX002 (ip), vehicle: Klucel (hydroxypropylcellulose) (HPC) 93 % of control

COc1ccc(OC)c2c1C=CCC2
inactive: [14] 96 % of control | [15] 91 % of control | [16] 104 % of control
